Key:
[1] = wn = mass fraction of the nth substance listed; details: 101 kPa, Liquid; for viscosity: Falling or rolling sphere viscometry; for binary diffusion coefficient: Taylor dispersion method; for mass density: Vibrating tube method
[2] = xn = mol fraction of the nth substance listed; details: 101 kPa, Liquid, Taylor dispersion method, x1 = 0.2
[3] = 101 kPa, Liquid, Vibrating tube method

NCCNCCN [di(2-aminoethyl)amine] + O
[1]
Details	binary diffusion coefficient [m2/s]	mass density [kg/m3]	viscosity [mPa·s]
303.15 K, w1 = 0	7.45e-10	–	–
303.15 K, w1 = 0.1	7.01e-10	998.5	1.211
303.15 K, w1 = 0.2	6.64e-10	1002.9	2.011
303.15 K, w1 = 0.3	6.14e-10	1009.8	3.572
303.15 K, w1 = 0.4	5.57e-10	1016.2	7.31
303.15 K, w1 = 1	–	942.1	–
308.15 K, w1 = 0	8.43e-10	–	–
308.15 K, w1 = 0.1	7.93e-10	996.7	1.08
308.15 K, w1 = 0.2	7.61e-10	1000.8	1.751
308.15 K, w1 = 0.3	7.14e-10	1007.2	3.015
308.15 K, w1 = 0.4	6.6e-10	1013	5.915
308.15 K, w1 = 1	–	937.9	–
313.15 K, w1 = 0	9.5e-10	–	–
313.15 K, w1 = 0.1	8.95e-10	994.8	0.97
313.15 K, w1 = 0.2	8.52e-10	998.7	1.54
313.15 K, w1 = 0.3	8.13e-10	1004.5	2.582
313.15 K, w1 = 0.4	7.41e-10	1009.9	4.859
313.15 K, w1 = 1	–	933.8	–
318.15 K, w1 = 0	1.03e-09	–	–
318.15 K, w1 = 0.1	1.01e-09	992.8	0.88
318.15 K, w1 = 0.2	9.38e-10	996.3	1.366
318.15 K, w1 = 0.3	8.82e-10	1001.8	2.234
318.15 K, w1 = 0.4	8.55e-10	1006.7	4.049
318.15 K, w1 = 1	–	929.6	–
323.15 K, w1 = 0	1.19e-09	–	–
323.15 K, w1 = 0.1	1.12e-09	990.6	0.799
323.15 K, w1 = 0.2	1.06e-09	993.9	1.221
323.15 K, w1 = 0.3	1.01e-09	998.9	1.95
323.15 K, w1 = 0.4	9.61e-10	1003.4	3.302
323.15 K, w1 = 1	–	925.5	–

OCCO [1,2-ethanediol] + O
[2]
Details	binary diffusion coefficient [m2/s]
303.15 K	8.21e-10
308.15 K	9.03e-10
313.15 K	9.98e-10
318.15 K	1.09e-09
323.15 K	1.2e-09

CN(C)CCCN(C)C [N,N,N',N'-tetramethyl-1,3-propanediamine]
[3]
Details	mass density [kg/m3]
303.15 K	774.8
308.15 K	770.9
313.15 K	767.4
318.15 K	765
323.15 K	761.4

NCCNCCN [di(2-aminoethyl)amine]
[3]
Details	mass density [kg/m3]
303.15 K	942.1
308.15 K	937.9
313.15 K	933.8
318.15 K	929.6
323.15 K	925.5

CNCCCN [N-methyl-1,3-diaminopropane] + O
[1]
Details	binary diffusion coefficient [m2/s]	mass density [kg/m3]	viscosity [mPa·s]
303.15 K, w1 = 0	8.45e-10	–	–
303.15 K, w1 = 0.1	7.35e-10	988.5	1.231
303.15 K, w1 = 0.2	6.87e-10	983.9	2.005
303.15 K, w1 = 0.3	6.4e-10	980.7	3.41
303.15 K, w1 = 0.4	6.08e-10	975.9	5.515
303.15 K, w1 = 1	–	849.1	–
308.15 K, w1 = 0	9.56e-10	–	–
308.15 K, w1 = 0.1	8.63e-10	986.7	1.09
308.15 K, w1 = 0.2	7.69e-10	981.6	1.731
308.15 K, w1 = 0.3	7.26e-10	977.7	2.823
308.15 K, w1 = 0.4	6.92e-10	972.2	4.451
308.15 K, w1 = 1	–	844.7	–
313.15 K, w1 = 0	1.05e-09	–	–
313.15 K, w1 = 0.1	9.36e-10	984.7	0.976
313.15 K, w1 = 0.2	8.72e-10	979.1	1.512
313.15 K, w1 = 0.3	8.25e-10	974.5	2.391
313.15 K, w1 = 0.4	7.77e-10	968.4	3.66
313.15 K, w1 = 1	–	840.3	–
318.15 K, w1 = 0	1.18e-09	–	–
318.15 K, w1 = 0.1	1.05e-09	982.6	0.887
318.15 K, w1 = 0.2	9.72e-10	976.4	1.333
318.15 K, w1 = 0.3	9.22e-10	971.3	2.059
318.15 K, w1 = 0.4	8.73e-10	964.6	2.979
318.15 K, w1 = 1	–	835.9	–
323.15 K, w1 = 0	1.31e-09	–	–
323.15 K, w1 = 0.1	1.18e-09	980.2	0.808
323.15 K, w1 = 0.2	1.09e-09	973.7	1.184
323.15 K, w1 = 0.3	1.03e-09	967.9	1.769
323.15 K, w1 = 0.4	9.77e-10	960.7	2.525
323.15 K, w1 = 1	–	831.5	–

CN(C)CCN(C)C [N,N,N',N'-tetramethyl-1,2-diaminoethane]
[3]
Details	mass density [kg/m3]
303.15 K	767.3
308.15 K	762.9
313.15 K	759.1
318.15 K	754.7
323.15 K	750.3

From the NIST ThermoML archive (doi:10.1016/j.fluid.2013.11.028)
